Laboratory results reported in article PMC4450297, “Screening Active Compounds from Garcinia Species Native to China Reveals Novel Compounds Targeting the STAT/JAK Signaling Pathway” (BioMed Research International, 2015).

Tests used:
NCI-H1650 = test: Cell proliferation assay (CellTiter-Glo); format: cell-based, human; conditions: NCI-H1650 cells, 20 μM to 0.009 μM in serial 3-fold dilutions
Method: (§1) All cells were obtained from the cell bank of the American Type Culture Collection (ATCC) and cultured in the supplier's recommended media supplemented with 10% FBS. The cell panel screen was measured using the CellTiter-Glo assay (Promega, Madison, WI) following a standard protocol. Briefly, cancer cells were seeded in 96-well plates and cultured overnight at 37°C with or without 5% CO2 in an incubator. Each compound was dissolved with limited DMSO and diluted to a certain concentration with culture medium and then added to the corresponding well of the cell plate. The final concentration of compound was 20 μM. The control cells (without treatment) received the same amount of DMSO and were incubated under the same conditions. After 72 h cultivation, 100 μL of the CellTiter-Glo reagent was added directly to each well for 10-minute incubation. The plate was then read on a FlexStation 3 microplate luminometer (Molecular Devices, USA) to monitor the luminescence signal generated by the luciferase-catalyzed reaction of luciferin and ATP. The percent of growth inhibition was calculated using the following formula: (untreated cells − treated cells)/(untreated cells − background without cells) ∗ 100.
(§2) For proliferation assays, the CellTiter-Glo assay (Promega, Madison, WI) was used to evaluate the proliferation of cancer cells treated with test compounds as described above. Each compound was dissolved in limited DMSO and diluted to various concentrations with culture medium and then added to the corresponding wells. A dose-response curve was plotted, and the IC50 was calculated using XLfit software.

A549 = test: Cell proliferation assay (CellTiter-Glo); format: cell-based; conditions: Homo sapiens, A549 cells, 72 h
Method: as §1, §2

CHP212 = test: Cell proliferation assay (CellTiter-Glo); format: cell-based; conditions: Homo sapiens, CHP-212, CHP212 cells, 72 h
Method: as §1, §2

LnCap = test: Cell proliferation assay (CellTiter-Glo); format: cell-based; conditions: Homo sapiens, LnCap cells, 72 h
Method: as §1, §2

NCI-H1573 = test: Cell proliferation assay (CellTiter-Glo); format: cell-based; conditions: Homo sapiens, NCI-H1573 cells, 72 h
Method: as §1, §2

NCI-H1975 = test: Cell proliferation assay (CellTiter-Glo); format: cell-based; conditions: Homo sapiens, NCI-H1975 cells, 72 h
Method: as §1, §2

NCI-H1993 = test: Cell proliferation assay (CellTiter-Glo); format: cell-based; conditions: Homo sapiens, NCI-H1993 cells, 72 h
Method: as §1, §2

NCI-H838 = test: Cell proliferation assay (CellTiter-Glo); format: cell-based; conditions: Homo sapiens, NCI-H838 cells, 72 h
Method: as §1, §2

SK-MEL-28 = test: Cell proliferation assay (CellTiter-Glo); format: cell-based; conditions: Homo sapiens, SK-MEL-28 cells, 72 h
Method: as §1, §2

SW1353 = test: Cell proliferation assay (CellTiter-Glo); format: cell-based; conditions: Homo sapiens, SW1353 cells, 72 h
Method: as §1, §2

SW48 = test: Cell proliferation assay (CellTiter-Glo); format: cell-based; conditions: Homo sapiens, SW48 cells, 72 h
Method: as §1, §2

SW954 = test: Cell proliferation assay (CellTiter-Glo); format: cell-based; conditions: Homo sapiens, SW 954, SW954 cells, 72 h
Method: as §1, §2

U118MG = test: Cell proliferation assay (CellTiter-Glo); format: cell-based; conditions: Homo sapiens, U-118-MG, U118MG cells, 72 h
Method: as §1, §2

NCI-H1650 cells = test: Soft-agar colony formation assay; format: cell-based; conditions: Homo sapiens, 168 h; NCI-H1650 cells in soft agar, one week, Alamar Blue; read-out: IC50, cell colony formation
Method: NCI-H1650 cells were plated in soft agar (Takara, Japan) at a density of 4000 cells/well in a 96-well plate. For the base layer, 1.2% agar stock solution was melted in an autoclave, cooled to 40°C in a water bath, and then mixed with RPMI1640 medium to obtain a solution of 0.6% agar in RPMI1640 containing 10% FBS. A cell suspension placed on the top layer was composed of RPMI1640 with 10% FBS and 0.4% agarose in each well. Then, the cells were incubated overnight. Compounds were added into the wells, and the NCI-H1650 cells were incubated for one week. After 7 days, alamar blue was added to the agar plate wells containing NCI-H1650 cell, and the plates were returned to the incubator. The fluorescence intensity (excitation 560 nm, emission 590 nm) was measured after 24 h.

[1] = test system: STAT3, ERK, AKT phosphorylation in NCI-H1650 cells; test: Western blot analysis in NCI-H1650 cells; format: cell-based, human; conditions: 8 h
Method: (§3) Floating and adherent cells were harvested and treated with ice-cold RIPA lysis buffer (50 mM Tris-HCl, pH 7.5, 0.5% cholic acid, 2 mM EDTA, 10% glycerol, 150 mM NaCl, 0.1% SDS, and 1% Triton X-100) containing complete Mini Protease Inhibitor Cocktail (Roche Applied Science, Indianapolis, IN). Proteins were separated by sodium dodecyl sulfate polyacrylamide gel electrophoresis and transferred to nitrocellulose membranes. Membranes were blocked with 5% BSA in washing buffer (100 mM NaCl, 10 mM Tris-HCl, pH 7.5, and 0.1% Tween-20) for 1 hr at room temperature and incubated with the respective primary antibodies in 5% BSA in washing buffer overnight at 4°C with shaking. The membranes were probed with the following antibodies: p44/42 (Cat#9107, CST), phospho-p44/42 (Cat#4370, CST), AKT (Cat#9272, CST), phospho-AKT (ser473) (Cat#9271, CST), STAT3 (Cat#9139, CST), and phospho-STAT3 (Tyr705) (Cat#9131, CST). Membranes were then washed and incubated with anti-mouse or anti-rabbit fluorescent secondary antibodies (LICOR, US) diluted in washing buffer for 1 h at room temperature with shaking. Protein bands were detected using an Odyssey Imaging system (LICOR, US).

[2] = test system: phosphorylation of STAT3 upon IL-6 stimulation in HepG2 cells; test: Western blot, IL-6-stimulated STAT3 activation; format: cell-based, human; conditions: pretreated 2 h, IL-6 10 ng/mL 15 min
Method: as §3

SMILES	IC50 (NCI-H1650; Homo sapiens, NCI-H1650, 72 h)	IC50 (A549)	IC50 (CHP212)	IC50 (LnCap)	IC50 (NCI-H1573)	IC50 (NCI-H1975)	IC50 (NCI-H1993)	IC50 (NCI-H838)	IC50 (SK-MEL-28)	IC50 (SW1353)	IC50 (SW48)	IC50 (SW954)	IC50 (U118MG)	IC50 (NCI-H1650 cells)	IC50 (NCI-H1650; 72 hr)	Phosphorylation of ERK and AKT [1]	STAT3 expression and its phosphorylation (Tyr705) [1]	phosphorylation of STAT3 upon IL-6 stimulation [2]	IC50 (NCI-H1650; Homo sapiens, 72 hr)
CC(C)=CCC/C(C)=C/Cc1c(O)c(CC=C(C)C)c2c(c1O)C(=O)C1=C[C@@H]3C[C@H]4C(C)(C)O[C@@](C/C=C(\C)C(=O)O)(C3=O)[C@@]14O2 [GB63]	1430 ± 90 nM	3770 ± 60 nM	3510 ± 80 nM	2170 ± 210 nM	7920 ± 290 nM	1710 ± 220 nM	2150 ± 100 nM	2650 ± 200 nM	1750 ± 160 nM	2480 ± 110 nM	4020 ± 150 nM	2580 ± 160 nM	3050 ± 100 nM	2660 ± 150 nM	–	–	–	–	–
CC(C)=CCC[C@@]1(C)C=Cc2c(O)c3c(c(C/C=C(\C)CO)c2O1)O[C@]12C(=C[C@@H]4C[C@H]1C(C)(C)O[C@@]2(C/C=C(/C)C(=O)O)C4=O)C3=O [GB40, 35-hydroxyepigambogic acid]	< 1000 nM	2450 ± 60 nM	1180 ± 50 nM	790 ± 120 nM	5990 ± 190 nM	960 ± 50 nM	1290 ± 50 nM	1680 ± 190 nM	730 ± 210 nM	830 ± 50 nM	1470 ± 100 nM	1020 ± 100 nM	1030 ± 150 nM	1070 ± 40 nM	620 ± 30 nM	inhibited	inhibited STAT3 expression and its phosphorylation in a dose-dependent manner	efficiently suppressed	–
CC(C)=CCC[C@@]1(C)C=Cc2c(O)c3c(c(CCC(C)(C)O)c2O1)O[C@]12C(=C[C@@H]4C[C@H]1C(C)(C)O[C@@]2(C/C=C(/C)C(=O)O)C4=O)C3=O [GB39, 33-hydroxyepigambogic acid]	< 1000 nM	3040 ± 100 nM	1200 ± 80 nM	840 ± 80 nM	6080 ± 210 nM	1250 ± 140 nM	1030 ± 130 nM	1500 ± 70 nM	820 ± 110 nM	760 ± 30 nM	1440 ± 60 nM	940 ± 40 nM	1150 ± 90 nM	1260 ± 10 nM	950 ± 30 nM	inhibited	inhibited STAT3 expression and its phosphorylation in a dose-dependent manner	efficiently suppressed	–
CC(C)=CCC/C(C)=C/Cc1c(O)c(CC=C(C)C)c2c(c1O)C(=O)C1=C[C@@H]3C[C@H]4C(C)(C)O[C@@](C/C=C(\C)C=O)(C3=O)[C@@]14O2 [GB49]	970 ± 40 nM	3460 ± 200 nM	1430 ± 30 nM	1910 ± 60 nM	7890 ± 140 nM	1690 ± 150 nM	2550 ± 140 nM	2720 ± 150 nM	1510 ± 120 nM	1290 ± 50 nM	2970 ± 60 nM	1880 ± 100 nM	1220 ± 50 nM	3920 ± 130 nM	–	–	–	–	–
CC(C)=CCC/C(C)=C/Cc1c(O)c(CC=C(C)C)c2c(c1O)C(=O)C1=C[C@@H]3C[C@H]4C(C)(C)O[C@@](CC=C(C)C)(C3=O)[C@@]14O2 [GB32]	–	2880 ± 60 nM	1450 ± 80 nM	1800 ± 140 nM	4360 ± 150 nM	1580 ± 120 nM	2470 ± 110 nM	3150 ± 40 nM	1510 ± 70 nM	1410 ± 50 nM	3840 ± 90 nM	2430 ± 170 nM	1190 ± 70 nM	3130 ± 300 nM	–	–	–	–	1090 ± 150 nM
